Experimental data: US20240293351A1, “METHODS OF ADMINISTERING SYNTHETIC TRITERPENOIDS” (REATA PHARMACEUTICALS HOLDINGS, LLC, priority 2020, published 2024)
Values joined by “and” are separate entries in the source; they are usually repeats but may differ in a detail not shown here. Equal entries are not always repeated. Where two headings read alike, the source gives them in different places.

Key:
[1] = BEACON 24-hour ABPM / 24-hr urine collection sub-study; type: in vivo, human
Excerpt: A subset of the BEACON patients consented to additional 24-hour assessments including ambulatory blood pressure monitoring (ABPM) and 24-hour urine collections. An independent Events Adjudication Committee (EAC), blinded to study treatment assignment, evaluated whether renal events, cardiovascular events, and neurological events met the pre-specified definitions of the primary and secondary endpoints. An IDMC, consisting of external clinical experts supported by an independent statistical group, reviewed unblinded safety data throughout the study and made recommendations as appropriate.
A subset of patients consented to additional 24-hr assessments (sub-study) of ambulatory blood pressure monitoring (ABPM) and 24-hr urine collection at selected visits. […] Also of note, reductions in serum magnesium were not associated with renal loss of magnesium.

[2] = clinical; conditions: human, in vivo, po
[3] = BEACON post-hoc review of EAC case packets for heart failure events within first four weeks; type: in vivo, human
Method: The first scheduled post-baseline assessment in BEACON was at Week 4. Since many of the heart failure events occurred prior to Week 4, the clinical database provides limited information to characterize these patients. Post-hoc review of the EAC case packets for heart failure cases that occurred prior to Week 4 was performed to assess clinical, vitals, laboratory, and imaging data collected at the time of the first heart failure event (Tables 13 and 14).
Baseline central laboratory values from the clinical database were compared to local laboratory values obtained on admission for heart failure that were included in the EAC packets.

[4] = human, in vivo, po
[5] = BEAM (402-C-0804) phase 2b study, crystalline formulation; type: in vivo, human
[6] = Crystalline 25 mg QD 52 weeks, N = 57
[7] = Crystalline 75 mg QD 52 weeks, N = 57
[8] = Crystalline 150 mg QD 52 weeks, N = 56
[9] = ITT N = 1088, adjudicated primary endpoints
[10] = post-hoc ITT, Observed N, randomized 1088
[11] = post-hoc, Age ≤ 75, randomized 786
[12] = post-hoc, BL ACR ≤ 300, eGFR > 20, BNP ≤ 200, randomized 209
[13] = post-hoc, BL ACR ≤ 1000, eGFR > 20, Age ≤ 75, randomized 368
[14] = post-hoc, BL ACR ≤ 1000, randomized 798
[15] = post-hoc, BL BNP ≤ 200, randomized 559
[16] = post-hoc, BL eGFR > 20, randomized 735
[17] = post-hoc, No h/o HF, randomized 922

COC(=O)[C@]12CCC(C)(C)C[C@H]1[C@H]1C(=O)C=C3[C@@]4(C)C=C(C#N)C(=O)C(C)(C)[C@@H]4CC[C@@]3(C)[C@]1(C)CC2 [Bardoxolone methyl, methyl-2-cyano-3,12-dioxooleana-1,9-dien-28-oic acid]
Urinary Magnesium, WK4 Δ from baseline, mean ([1]; n = 40): −0.9 mmol/24 h | Urinary Magnesium, WK4, mean ([1]; n = 43): 6.0 mmol/24 h | Urinary Potassium, WK4 Δ from baseline, mean ([1]; n = 57): −7 mmol/24 h | Urinary Sodium, WK4 Δ from baseline, mean ([1]; n = 57): −27 mmol/24 h | Urinary Potassium, WK4, mean ([1]; n = 61): 52 mmol/24 h | Urinary Sodium, WK4, mean ([1]; n = 61): 140 mmol/24 h | 24-hour Urine Volume, WK4 Δ from baseline, mean ([1]; n = 63): -247 mL | 24-hour Urine Volume, WK4, mean ([1]; n = 64): 1792 mL | Serum Magnesium, WK4, mean ([1]; n = 77): 1.53 mEq/L | Serum Magnesium, WK4 Δ from baseline, mean ([1]; n = 77): −0.21 mEq/L | Serum Potassium, WK4 Δ from baseline, mean ([1]; n = 77): 0.10 mmol/L | Serum Sodium, WK4, mean ([1]; n = 77): 140.3 mmol/L | Serum Sodium, WK4 Δ from baseline, mean ([1]; n = 77): 0.2 mmol/L | Serum Potassium, WK4, mean ([1]; n = 77, 20 mg once daily): 4.8 mmol/L | half-life [2]: 48 to 60 h | LVEF at HF hospitalization, mean ([3]; n = 23): 52% ± | Serum Sodium at HF hospitalization, mean ([3]; n = 30): 139.0 mmol/L | Serum Sodium Δ (HF vs baseline), mean ([3]; n = 30): -1.0 mmol/L | Heart Rate at HF hospitalization, mean ([3]; n = 32): 81 bpm | Heart Rate Δ (HF vs baseline), mean ([3]; n = 32): 14.5 bpm | SBP at HF hospitalization, mean ([3]; n = 33): 154 mmHg | SBP Δ (HF vs baseline), mean ([3]; n = 33): 10.5 mmHg | DBP at HF hospitalization, mean ([3]; n = 34): 75 mmHg | DBP Δ (HF vs baseline), mean ([3]; n = 34): 7.9 mmHg | Serum Potassium at HF hospitalization, mean ([3]; n = 34): 4.8 mmol/L | Serum Potassium Δ (HF vs baseline), mean ([3]; n = 34): 0.1 mmol/L | Serum Creatinine at HF hospitalization, mean ([3]; n = 38): 2.7 mg/dL | Serum Creatinine Δ (HF vs baseline), mean ([3]; n = 38): -0.1 mg/dL | Dose dependence of systemic exposure [4]: increased linearly with increasing dose from 20 to 60 mg | Food effect on total systemic exposure [4]: no appreciable food effect | Increase in peak plasma levels (Cmax) with food [4]: approximately 71% | Time of peak plasma concentrations after dose administration [4]: 1 to 6 h | AE, SOC Card: Cardiac failure congestive, patients n (%) [5, 6]: 2 (4) | AE, SOC Card: Dyspnoea paroxysmal nocturnal, patients n (%) [5, 6]: 0 | AE, SOC Card: Oedema peripheral, patients n (%) [5, 6]: 4 (7) | AE, SOC Genrl: Generalised oedema, patients n (%) [5, 6]: 2 (4) | AE, SOC Genrl: Oedema peripheral, patients n (%) [5, 6]: 11 (19) | AE, SOC Inv: Ejection fraction decreased, patients n (%) [5, 6]: 1 (2) | AE, SOC Metab: Fluid overload, patients n (%) [5, 6]: 3 (5) | AE, SOC Metab: Oedema peripheral, patients n (%) [5, 6]: 3 (5) | AE, SOC Resp: Dyspnoea exertional, patients n (%) [5, 6]: 1 (2) | AE, SOC Resp: Dyspnoea, patients n (%) [5, 6]: 2 (4) | AE, SOC Resp: Orthopnoea, patients n (%) [5, 6]: 0 | AE, SOC Resp: Pulmonary oedema, patients n (%) [5, 6]: 0 | SAE, SOC Card: Cardiac failure congestive, patients n (%) [5, 6]: 2 (4) | SAE, SOC Genrl: Oedema peripheral, patients n (%) [5, 6]: 0 | SAE, SOC Metab: Fluid overload, patients n (%) [5, 6]: 1 (2) | SAE, SOC Resp: Dyspnoea, patients n (%) [5, 6]: 0 | SAE, SOC Resp: Pulmonary oedema, patients n (%) [5, 6]: 0 | AE, SOC Card: Cardiac failure congestive, patients n (%) [5, 7]: 3 (5) | AE, SOC Card: Dyspnoea paroxysmal nocturnal, patients n (%) [5, 7]: 1 (2) | AE, SOC Card: Oedema peripheral, patients n (%) [5, 7]: 3 (5) | AE, SOC Genrl: Generalised oedema, patients n (%) [5, 7]: 0 | AE, SOC Genrl: Oedema peripheral, patients n (%) [5, 7]: 10 (18) | AE, SOC Inv: Ejection fraction decreased, patients n (%) [5, 7]: 0 | AE, SOC Metab: Fluid overload, patients n (%) [5, 7]: 2 (4) | AE, SOC Metab: Oedema peripheral, patients n (%) [5, 7]: 1 (2) | AE, SOC Resp: Dyspnoea exertional, patients n (%) [5, 7]: 0 | AE, SOC Resp: Dyspnoea, patients n (%) [5, 7]: 6 (11) | AE, SOC Resp: Orthopnoea, patients n (%) [5, 7]: 0 | AE, SOC Resp: Pulmonary oedema, patients n (%) [5, 7]: 1 (2) | SAE, SOC Card: Cardiac failure congestive, patients n (%) [5, 7]: 2 (4) | SAE, SOC Genrl: Oedema peripheral, patients n (%) [5, 7]: 0 | SAE, SOC Metab: Fluid overload, patients n (%) [5, 7]: 1 (2) | SAE, SOC Resp: Dyspnoea, patients n (%) [5, 7]: 0 | SAE, SOC Resp: Pulmonary oedema, patients n (%) [5, 7]: 1 (2) | AE, SOC Card: Cardiac failure congestive, patients n (%) [5, 8]: 3 (5) | AE, SOC Card: Dyspnoea paroxysmal nocturnal, patients n (%) [5, 8]: 0 | AE, SOC Card: Oedema peripheral, patients n (%) [5, 8]: 4 (7) | AE, SOC Genrl: Generalised oedema, patients n (%) [5, 8]: 0 | AE, SOC Genrl: Oedema peripheral, patients n (%) [5, 8]: 11 (20) | AE, SOC Inv: Ejection fraction decreased, patients n (%) [5, 8]: 0 | AE, SOC Metab: Fluid overload, patients n (%) [5, 8]: 0 | AE, SOC Metab: Oedema peripheral, patients n (%) [5, 8]: 3 (5) | AE, SOC Resp: Dyspnoea exertional, patients n (%) [5, 8]: 3 (5) | AE, SOC Resp: Dyspnoea, patients n (%) [5, 8]: 4 (7) | AE, SOC Resp: Orthopnoea, patients n (%) [5, 8]: 0 | AE, SOC Resp: Pulmonary oedema, patients n (%) [5, 8]: 0 | SAE, SOC Card: Cardiac failure congestive, patients n (%) [5, 8]: 2 (4) | SAE, SOC Genrl: Oedema peripheral, patients n (%) [5, 8]: 1 (2) | SAE, SOC Metab: Fluid overload, patients n (%) [5, 8]: 0 | SAE, SOC Resp: Dyspnoea, patients n (%) [5, 8]: 0 | SAE, SOC Resp: Pulmonary oedema, patients n (%) [5, 8]: 0 | Blood pressure ([5]; crystalline formulation, titration design): no clear dose-related trend was observed in blood pressure | Occurrence of Death (BEACON, ITT, BARD 20 mg (N = 1088), deaths at database lock): 4.0% | Occurrence of ESRD (BEACON, ITT, BARD 20 mg (N = 1088), events through last date of contact): 4.0% | Patient's first event: CV death, patients [9]: 26 n | Patient's first event: Chronic dialysis, patients [9]: 40 n | Patient's first event: End stage renal disease (ESRD), patients [9]: 43 n | Patient's first event: Renal death, patients [9]: 2 n | Patient's first event: Renal transplant, patients [9]: 1 n | Composite primary efficacy outcome (ESRD or CV death), patients (ITT N = 1088, adjudicated, on or before study termination): 69 n | SAE Infections and infestations, patients (ITT, All Patients N = 1088): 79 | SAE Infections and infestations, patients (ITT, BL ACR ≤ 300, eGFR > 20, BNP ≤ 200, N = 209): 9 | SAE Infections and infestations, patients (ITT, BL ACR ≤ 1000, eGFR > 20, Age ≤ 75, N = 368): 20 | Treatment-emergent SAE: Infections and infestations, patients (Safety Population N = 1092, 20 mg once daily): 79 n | Fatal heart failure events (final analysis): three | Hy's Law cases (human, in vivo): no Hy's Law cases were observed | Increase in BNP from baseline, Mean±SD (human, in vivo): 225 ± 598 pg/mL | K^+ Retention (human, in vivo): None | Mean WK 24 ΔeGFR (human, in vivo): 6.1 and 5.5 and 7.6 | Mean increase in diastolic blood pressure (human, in vivo): 1.4 mmHg | Mean increase in systolic blood pressure (human, in vivo): 1.9 mmHg | N of patients with WK 24 BNP change 25% to 100% Increase (human, in vivo): 45 | N of patients with WK 24 BNP change <25% Increase (human, in vivo): 84 | N of patients with WK 24 BNP change ≥100% Increase (human, in vivo): 82 | QTc prolongation (human, in vivo): not associated with QTc prolongation | SAE Endocrine disorders, patients (human, in vivo): 1 | QTcF interval, change from baseline, 25th quartile (human, in vivo, 24 weeks): -13 ms | QTcF interval, change from baseline, 75th quartile (human, in vivo, 24 weeks): 10 ms | QTcF interval, change from baseline, Mean (SD) (human, in vivo, 24 weeks): −0.9 (19.2) msec | QTcF interval, change from baseline, Range (min, max) (human, in vivo, 24 weeks): −88, 69 | QTcF interval, change from baseline, median (human, in vivo, 24 weeks): -1 ms | QTcF interval, observed, 25th quartile (human, in vivo, 24 weeks): 407 ms | QTcF interval, observed, 75th quartile (human, in vivo, 24 weeks): 443 ms | QTcF interval, observed, Mean (SD) (human, in vivo, 24 weeks): 425.8 (26.5) msec | QTcF interval, observed, median (human, in vivo, 24 weeks): 425 ms | All-Cause Death, patients [10]: 44 | ESRD, patients with event [10]: 47 | All-Cause Death, patients [11]: 20 | ESRD, patients with event [11]: 38 | All-Cause Death, patients [12]: 5 | ESRD, patients with event [12]: 1 | All-Cause Death, patients [13]: 11 | ESRD, patients with event [13]: 9 | All-Cause Death, patients [14]: 32 | ESRD, patients with event [14]: 21 | All-Cause Death, patients [15]: 14 | ESRD, patients with event [15]: 12 | All-Cause Death, patients [16]: 27 | ESRD, patients with event [16]: 18 | All-Cause Death, patients [17]: 35 | ESRD, patients with event [17]: 35 | Deaths confirmed as cardiovascular, patients (prior to clinical database lock (Mar. 4, 2013)): 29
